This is an account of results in US20230302036A1, “COMPOSITIONS FOR TREATMENT OF SPINAL MUSCULAR ATROPHY” (priority 2020, published 2023).

Oligonucleotides are written 5' to 3', each unit as a sugar letter and its base; * is a phosphorothioate linkage, no mark a phosphodiester; rarer units and linkages stand in square brackets, end groups in braces. Plain capitals give the bases only. e = 2'-O-(2-methoxyethyl) (MOE); [5mC] = 5-methylcytosine

In data set [1] the test system is endogenous SMN2 E7 alternative splicing in SMA patient fibroblasts. Put plainly: SMN2 E7 alternative splicing by radioactive RT-PCR in SMA patient fibroblasts (3813). Conditions: 10 nM ASO1 and 3 µM TSA 24 hr. It counts as cell-based, human. As to the method:
(§1) Combined effects on endogenous SMN2 E7 alternative splicing in transfected (FIG. 5A) HEK293T cells with 25 nM ASO1 and increasing doses of TSA for 24 hr, (FIG. 5B) HeLa cells with 10 nM ASO1 and 3 µM TSA for 24 hr., and (FIG. 5C) SMA patient fibroblasts (3813) with 10 nM ASO1 and 3 µM TSA for 24 hr. Bars display means ± SD of percentage of the radioactivity in the FL band over the sum of radioactivity measurements in the FL and ΔE7 bands of at least three independent transfection experiments. (FIG. 5D and FIG. 5E) Transcriptional activation was assessed by RT-qPCR. (FIG. 5F) HEK293T cells with 3 nM ASO1 and 10 mM VPA for 24 hr. Bars indicate mean transcriptional activation ± SD ratios between precursors of SMN2 and GAPDH as the control gene. Statistical significance was analyzed by two-tailed Student’s t-tests. P < 0.05 was considered statistically significant.
(§2) HEK293T, HeLa, and SMA type I homozygous and carrier fibroblasts 3813 and 3814 (Coriell Cell Repositories, Camden, New Jersey, United States) were grown in Dulbecco’s modified Eagle’s medium (DMEM) containing 4.5 g of glucose and 10% fetal bovine serum (Gibco) at 37° C. […]

Data set [2] has as its system endogenous SMN2 E7 alternative splicing. Kind of data set: SMN2 E7 alternative splicing by radioactive RT-PCR in HEK293T cells. The following applies: for effect of the drug on ASO1's effect on E7 inclusion: HEK293T transfected with 25 nM ASO1, increasing doses of TSA 24 hr; for effect of the drug on ASO1's effect on E7 inclusion / effect on SMN2 E7 inclusion, agent alone: 25 µM 5-AZA 48 hr; for effect on SMN2 E7 inclusion, agent alone: 25 nM ASO, 3 µM TSA 24 hr, 3 µM CPT. It counts as cell-based, human. As to the method:
Alternative splicing was analyzed by radioactive RT-PCR followed by native polyacrylamide gel electrophoresis and autoradiography. Bars display means ± SD of percentage of the radioactivity in the FL band over the sum of radioactivity measurements in the FL and ΔE7 bands of at least three independent transfection experiments. A two-tailed Student’s t test was used to determine the significance between events. (FIG. 1A) HEK293T cells were co-transfected with the SMN2 minigene and expression vectors for WT^res and hC4 Pol II, followed by addition of α-amanitin. (FIG. 1B) Effect of camptothecin (CPT) on SMN2 E7 alternative splicing. HEK293T cells were incubated for at least 6 hours with 3 µM CPT. Combined effects on endogenous SMN2 E7 alternative splicing of transfection with 25 nM ASO1 and treatment with 3 µM TSA for 24 hr (FIG. 1C), 10 mM VPA for 24 hr (FIG. 1D), or 25 µM 5-AZA for 48 hr (FIG. 1E). Combined effects on HEK293T endogenous SMN2 E7 alternative splicing of transfection with 25 nM each of si-hnRNPA1 and si-hnRNPA2, and treatment with 3 µM TSA for 24 hr (FIG. 1F) or 10 mM VPA for 24 hr (FIG. 1G). […]
HEK293T, HeLa, and SMA type I homozygous and carrier fibroblasts 3813 and 3814 (Coriell Cell Repositories, Camden, New Jersey, United States) were grown in Dulbecco’s modified Eagle’s medium (DMEM) containing 4.5 g of glucose and 10% fetal bovine serum (Gibco) at 37° C. Cells were plated at a density of 2×10^5 cells per well in 12-well plates 24 hr before transfection. siRNA (25 nM), plasmid (500 ng), or ASO (25 nM) transfections were performed 24 hr after cells were plated, using 3 µl of Lipofectamine 2000 (Thermo Fisher Scientific) per well in 12-well plates. 24-48 h later, cells were treated with Trichostatin A (Sigma, T8552), Valproic Acid (Sigma, P4543), 5-Azacytidine (Sigma, A2385) or vehicle for the indicated time, and harvested for downstream procedures. […]

A further data set deals with SMN2 pre-mRNA. Put plainly: Transcriptional activation by RT-qPCR of SMN2 pre-mRNA in HEK293T cells. The following applies: HDAC inhibitor alone. In kind it is cell-based, human. In general terms: In qPCR the cycle at which signal appears reflects the starting amount.
The subject of data set [3] is endogenous SMN2 E7 alternative splicing in HeLa cells. Put plainly: SMN2 E7 alternative splicing by radioactive RT-PCR in HeLa cells. It counts as cell-based, human. Conditions: 10 nM ASO1 and 3 µM TSA 24 hr. As to the method:
as §1, §2

The test system of the next data set is SMN2 E7. The following applies: saturating doses; cited from earlier work.
Data set [4] concerns H3K9me2 along SERF1A, MYOD, GAPDH. Put plainly: Specificity control ChIP-qPCR of H3K9me2 on SERF1A, MYOD and GAPDH in HEK293T cells. It counts as cell-based, human. On the procedure: FIGS. 6A-6D show antisense oligonucleotides and their effects on chromatin. […] Uppercase, exonic nucleotide sequence. Lowercase, intronic sequences. Upstream highlight, binding site for ASO1. Downstream highlight, binding site for ASO2. Levels of H3K9me2 deposition along small EDRK-rich factor 1A (SERF1A, upstream of SMN2) (FIG. 6B), Myoblast Determination Protein (MYOD) (FIG. 6C), and Glyceraldehyde 3-phosphate dehydrogenase (GAPDH) (FIG. 6D), were assessed by ChIP-qPCR in HEK293T cells. Data represented as mean ± S.D. (n = 4, *p < 0.05, two-tailed Student’s t test).
Approximately 2×10^6 HEK293T cells per sample were treated for 10 min in 1% (v/v) formaldehyde at room temperature to crosslink protein-DNA complexes. Crosslinking was stopped with glycine at a final concentration of 125 mM. Cells were washed twice with cold PBS and swelled on ice for 10 min in 25 mM HEPES pH 8, 1.5 mM MgCl2, 10 mM KCl, 0.1% NP-40, 1 mM DTT and 1× protease inhibitor cocktail set III (Calbiochem). Following Dounce homogenization, the nuclei were collected and resuspended in 1 ml sonication buffer (50 mM HEPES pH 8, 140 mM NaCl, 1 mM EDTA, 0.1% sodium deoxycholate, 0.1% SDS and 1× protease inhibitor cocktail). […] Immunoprecipitated DNA (1.5 µl) and serial dilutions of the 10% input DNA (1:4, 1:20, 1: 100, and 1:500) were analyzed by SYBR-Green real-time qPCR.

Data set [5] concerns H3K9me2 along the SMN2 gene. Kind of data set: ChIP-qPCR of H3K9me2 distribution along the SMN2 gene in HEK293T cells. The following applies: HEK293T; ASO transfection or 10 mM VPA. It counts as cell-based, human.
Protocol: (§3) H3K9me2 (FIG. 2B), total RNAPII (FIG. 2C), P-Ser5 RNAPII (FIG. 2D), and P-Ser2 RNAPII (FIG. 2E) distribution along the SMN2 gene, assessed by ChIP-qPCR in HEK293T cells transfected with the scramble oligo (CTRL) or ASO1 and treated with 10 mM VPA. Four independent immunoprecipitation replicates were conducted per experiment. Data are represented as mean ± S.D. (n = 4, *p < 0.05, two-tailed Student’s t test).
(§4) Total distribution of H3K9me2 (FIG. 3C), total RNAPII (FIG. 3D), P-Ser5 RNAPII (FIG. 3E), and P-Ser2 RNAPII (FIG. 3F) along the SMN2 gene is shown. This distribution was assessed by ChIP-qPCR in HEK293T cells transfected with the scramble oligo (CTRL) or ASO2 and treated with 10 mM VPA. Four independent immunoprecipitation replicates were conducted per experiment. Data are represented as mean ± S.D. (n = 4, *p < 0.05, two-tailed Student’s t test).
Approximately 2×10^6 HEK293T cells per sample were treated for 10 min in 1% (v/v) formaldehyde at room temperature to crosslink protein-DNA complexes. Crosslinking was stopped with glycine at a final concentration of 125 mM. Cells were washed twice with cold PBS and swelled on ice for 10 min in 25 mM HEPES pH 8, 1.5 mM MgCl2, 10 mM KCl, 0.1% NP-40, 1 mM DTT and 1× protease inhibitor cocktail set III (Calbiochem). Following Dounce homogenization, the nuclei were collected and resuspended in 1 ml sonication buffer (50 mM HEPES pH 8, 140 mM NaCl, 1 mM EDTA, 0.1% sodium deoxycholate, 0.1% SDS and 1× protease inhibitor cocktail). DNA was sonicated in an ultrasonic bath (Bioruptor Diagenode) to an average length of 200-500 bp. After addition of 1% (v/v) Triton X-100, samples were centrifuged at 15,000 ×g. Supernatants were immunoprecipitated O/N with 40 µl of pre-coated anti-IgG magnetic beads (Dynabeads M-280, Invitrogen) previously incubated with the antibody of interest for 6 hr at 4° C. The antibodies used were: rabbit anti-H3 (2 µg, Abcam ab1791), mouse anti-H3K9me2 (4 µg, Abcam ab1220), rabbit anti H3K9me3 (4 µg, Abcam ab8898), rabbit anti H3K9Ac (2 µg, Abcam ab4441), rabbit anti Rpb1 NTD (2 µg, Cell Signaling, D8L4Y), rabbit Phospho-Rpb1 CTD Ser2 (2 µg, Cell Signaling, E1Z3G), rabbit Phospho-Rpb1 CTD Ser5 (2 µg, Cell Signaling, D9N5I). Control immunoprecipitations were performed with rabbit IgG (1 µg, Abcam ab171870). […] Immunoprecipitated DNA (1.5 µl) and serial dilutions of the 10% input DNA (1:4, 1:20, 1: 100, and 1:500) were analyzed by SYBR-Green real-time qPCR.
The test system of data set [6] is RNAPII (total, P-Ser5, P-Ser2) along the SMN2 gene. Put plainly: ChIP-qPCR of RNAPII distribution along the SMN2 gene in HEK293T cells. In kind it is cell-based, human. Conditions: ASO transfection vs scramble.
Protocol: as §3, §4
Approximately 2×10^6 HEK293T cells per sample were treated for 10 min in 1% (v/v) formaldehyde at room temperature to crosslink protein-DNA complexes. Crosslinking was stopped with glycine at a final concentration of 125 mM. Cells were washed twice with cold PBS and swelled on ice for 10 min in 25 mM HEPES pH 8, 1.5 mM MgCl2, 10 mM KCl, 0.1% NP-40, 1 mM DTT and 1× protease inhibitor cocktail set III (Calbiochem). Following Dounce homogenization, the nuclei were collected and resuspended in 1 ml sonication buffer (50 mM HEPES pH 8, 140 mM NaCl, 1 mM EDTA, 0.1% sodium deoxycholate, 0.1% SDS and 1× protease inhibitor cocktail). DNA was sonicated in an ultrasonic bath (Bioruptor Diagenode) to an average length of 200-500 bp. After addition of 1% (v/v) Triton X-100, samples were centrifuged at 15,000 ×g. Supernatants were immunoprecipitated O/N with 40 µl of pre-coated anti-IgG magnetic beads (Dynabeads M-280, Invitrogen) previously incubated with the antibody of interest for 6 hr at 4° C. The antibodies used were: rabbit anti-H3 (2 µg, Abcam ab1791), mouse anti-H3K9me2 (4 µg, Abcam ab1220), rabbit anti H3K9me3 (4 µg, Abcam ab8898), rabbit anti H3K9Ac (2 µg, Abcam ab4441), rabbit anti Rpb1 NTD (2 µg, Cell Signaling, D8L4Y), rabbit Phospho-Rpb1 CTD Ser2 (2 µg, Cell Signaling, E1Z3G), rabbit Phospho-Rpb1 CTD Ser5 (2 µg, Cell Signaling, D9N5I). Control immunoprecipitations were performed with rabbit IgG (1 µg, Abcam ab171870). Beads were washed sequentially for 5 min each in Low-salt (20 mM Tris-HCl pH 8, 150 mM NaCl, 2 mM EDTA, 1% Triton X-100, 0.1% SDS), High-Salt (20 mM Tris-HCl pH 8, 500 mM NaCl, 2 mM EDTA, 1% Triton X-100, 0.1% SDS) and LiCl buffer (10 mM Tris pH 8.0, 1 mM EDTA, 250 mM LiCl, 1% NP-40, 1% Na-deoxycholate) for 5 min at 4° C. and then twice in TE 1x for 2 min at room temperature. Beads were eluted in 1% SDS and 100 mM NaHCO3 buffer for 15 min at 65° C. and crosslinking was reversed for 6 hr after addition of NaCl to a final concentration of 200 mM. Chromatin was precipitated with ethanol overnight, treated with 20 µg proteinase K, and purified by phenol-chloroform extraction. Immunoprecipitated DNA (1.5 µl) and serial dilutions of the 10% input DNA (1:4, 1:20, 1: 100, and 1:500) were analyzed by SYBR-Green real-time qPCR.

In the case of `CC(/C=C/C(=O)NO)=C\[C@@H](C)C(=O)c1ccc(N(C)C)cc1` [TSA, trichostatin A], the “cooperative effect of TSA with ASO1 on E7 inclusion” value in data set [1] and in data set [3] was “reproducible” in each case. In addition, in data set [2], the “effect of the drug on ASO1's effect on E7 inclusion” value is “dose-dependent”. Besides, the “effect on SMN2 E7 inclusion, agent alone” value in data set [2] (HEK293T) is “less potent than ASO1 in upregulating E7 inclusion”. Moreover, the “effect of hnRNPA1/A2 depletion in promoting E7 inclusion upon HDAC inhibitor treatment” value in data set [2] (HEK293T, 25 nM each si-hnRNPA1 and si-hnRNPA2, no ASO1, 3 µM TSA or 10 mM VPA 24 hr) is listed as “stronger”. Moreover, the “levels of SMN2 pre-mRNA (promoter-proximal amplicon)” value in the data set on SMN2 pre-mRNA is reported as “increased the levels of SMN2 pre-mRNA”.
Regarding “nusinersen: TCACTTTCATAATGCTGG; 2′-O-(2-methoxyethyl) phosphorothioate-modified antisense-oligonucleotide drug targeting a splicing silencer in SMN2 intron 7 (all 2'-MOE, all phosphorothioate, methylation of C not given here)”, the “inclusion of SMN2 E7” value with SMN2 E7 was “nearly full inclusion of SMN2 E7”.
As to “ASO2: 5′-AAAGTATGTTTCTTCCACAC-3′ 2′-O-methoxyethyl phosphorothioate oligonucleotide; target in SMN2 intron 7 downstream of the ASO1 site (antisense eA*eA*eA*eG*eT*eA*eT*eG*eT*eT*eT*e[5mC]*eT*eT*e[5mC]*e[5mC]*eA*e[5mC]*eA*e[5mC])”, the “H3K9 dimethylation in control genes (same TAD: SERF1A; outside TAD: MYOD, GAPDH)” value in data set [4] is “neither ASO1 nor ASO2 promoted H3K9 dimethylation”. Further, in data set [5], the “H3K9me2 marks along the SMN2 gene” value is recorded as “promoted H3K9 methylation”. In addition, the “inhibition of SMN2 E7 inclusion, ASO2 combined with CPT” value in data set [2] (HEK293T, 25 nM ASO2 in combination with 3 µM CPT 24 hr) is on record as “stronger”. The “effect on SMN2 E7 inclusion, agent alone” value in data set [2] (HEK293T) is on record as “inhibited SMN2 E7 inclusion as efficiently as the elongation inhibitor CPT”. Further, in data set [6], the “P-Ser2 RNAPII density” value is reported as “higher”, the “P-Ser5 RNAPII density” value is “higher” and the “total RNAPII density” value is given as “higher”.
Regarding `CC[C@@]1(O)C(=O)OCc2c1cc1n(c2=O)Cc2cc3ccccc3nc2-1` [CPT, camptothecin], the “effect on SMN2 E7 inclusion, agent alone” value in data set [2] (HEK293T) is listed as “promoted E7 skipping”.
`Nc1ncn([C@@H]2O[C@H](CO)[C@@H](O)[C@H]2O)c(=O)n1` [5-AZA, 5-aza cytidine]: in data set [2], the “effect of the drug on ASO1's effect on E7 inclusion” value is on record as “enhanced the effects of ASO1 as effectively as the HDAC inhibitors”. The “effect on SMN2 E7 inclusion, agent alone” value in data set [2] (HEK293T) is “no effect per se on E7 inclusion”.
